Data published in patent publication US12595279B2, “Modified nucleoside and synthetic methods thereof” (STEMIRNA THERAPEUTICS CO., LTD., priority 2019, dated 2026).

Experiments:
[1] = tested on: mice dendritic cells (D.2.4 cells); test: Expression of 100% cytidine-modified luciferase (FLuc) mRNA, LPP-wrapped, in dendritic cells (luciferase activity, RLU); assay type: cell-based; conditions: FIG. 2; for difference of luciferase expression versus the control and m^4C (significance analysis on variance): 100% of cytidine replaced, control = cytidine without modification, P≤0.01, 24 h after transfection
Text: Obtaining of the mRNA of the modified luciferase: DNA sequence of Luc may be in vitro transcribed to mRNA by means of a transcriptase under a conventional reagent condition. During the process of transcription, modified mRNA in varying proportions were obtained according to a ratio of the modified C (cytidine) and non-modified C, where the modified mRNA may contain U-modified mRNA in varying proportions. The sequence was in vitro synthesized into the following modified mRMA, thus forming new modified luciferase. In the above sequence (SEQ NO:1), cytidine was replaced by the modified C* in the present invention; and the following modified C* denotes the expression of the mRNA of 5 monocytidine-modified mRNA having a modification ratio of 100% (namely, all the C were replaced into the following 5 different C* modifications, m^4C (N4-methylcytidine), and m^4Cm (N^4, 2′-O-dimethylcytidine), specifically as shown in Table 1.
1.2.1: Preparation of a phospholipid mixed liquor: phospholipid:DOPE:mPEG2000-DSPE=49:49:2 were dissolved into an ethanol solution. DOPE was purchased from Avanti, mPEG2000-DSPE was purchased from cordenpharma, and PBS was purchased from Invitrogen.
1.2.2: Preparation of mRNA: 1 mL mRNA (mRNA having a concentration of 0.2 mg/mL and total mass of 0.2 mg as shown in Table 2) in each treatment group was respectively sucked up by a BD injector.
1.2.3: Preparation of phospholipid/mRNA: […] and 3 mL phospholipid solution (having a concentration of 12 mg/mL) were respectively sucked up by a BD injector and inserted into a micro-fluidic chip (the microfluidics herein should be a small-sized equipment capable of producing package for nanoparticles); the setup parameters: volume: 9.0 mL; and flow rate ratio: 3:1, total flow rate: 1 mL/min; temperature: 37.0° C., initial amount: 0.35 mL; ending amount: 0.10 mL, thus a phospholipid/mRNA solution was obtained, namely, mRNA particles wrapped by phospholipid and a phospholipid mixed solution were obtained.
Thereby, the wrapped mRNA carrier in each treatment group was obtained.
Experiment reagent: (1) water was added to a harvest buffer (25 ml): 1.25 ml 1 M Tris-HCl(pH7.5), 25 μl 1 M DTT, 250 μl 10% Triton X-100 to 25 ml for storage at 4° C. (2) water was added to an ATP buffer (10 ml): 1.25 ml 1 M Tris-HCl(pH7.5), 250 μl 1 M MgCl2, 24 mg ATP to 10 ml for storage at […] (3) luciferin buffer (36 ml): 10 mg luciferin, 36 ml 5 mM KH2PO4 (pH7.8) was performed for storage at 4° C. (4) PBS: […], 2.68 mMKCl, 10 mM Na2HPO4, 1.76 mM KH2PO4 was performed for storage at 4° C. […]
1.3.6: same volume of cell lysis buffer (100 μl) was successively taken and put to the microcentrifuge tubes in step 5, and mixed evenly immediately, and […] were read on a Luminometer. […]

dendritic cells [2] = test: Influence of different modification ratios of cytidine on luciferase mRNA expression; assay type: cell-based, mice; conditions: for difference of expression at the best modification ratio versus other modification ratios (variance analysis): best ratio: invention 1 80%-100%, invention 4 20%, invention 2 40%, invention 3 5%; for trend of expression with the increase of the modification ratio: cytidine replaced at 0.5% to 100%; for trend of expression with the increase of the modification ratio / modification ratio with the maximum (optimal) expression quantity: FIGS. 4-7; for modification ratio with the maximum (optimal) expression quantity / modification ratio at which the expression quantity is relatively high: luciferase mRNA, part of the cytidine replaced; for modification ratio at which the expression quantity is relatively high: FIGS. 5-7
Experimental: mRNA of the luciferase in Example 1 was set as an example; a portion of cytidine was replaced with the compounds of the modified cytidine in the present invention having a ratio of 0.5%, 5%, 10%, 20%, 30%, 40%, 50%, 70%, 80% and 90%; and the specific replacement method was as follows: transcription was performed by a transcriptase of in vitro luciferase DNA with the supply of AUCG raw materials and according to a conventional method, where the synthesis method should be controlled and replaced, and then a portion of cytidine in mRNA was replaced according to the above ratio. The influence of the replacement in different ratios on the expression of mRNA was surveyed.

dendritic cells [3] = test: Influence of a 120A Poly(A) tail on the 3′ terminal on expression of modified luciferase mRNA in dendritic cells; assay type: cell-based, mice; conditions: 120A tail; luciferase mRNA 100% modified; compared with FIG. 2 (FIG. 3)
Experimental: 120A was added on a 3′ terminal as a tail, so as to survey the influence of adding Poly(A) on the 3′ terminal on the translation effect, as well as on the expression of the luciferase 100% modified by the inventions 1-4 and control group. The influence on enzyme expression was measured according to the packaging method and cell infection method in Example 1. It can be obviously seen through the comparison of FIG. 2 that the expression was increased both to the modified or non-modified mRNA after adding a Ploy (A) structure on the 3′ terminal.

Structure (SMILES)	difference of luciferase expression versus the control and m^4C (significance analysis on variance) [1]	difference of expression at the best modification ratio versus other modification ratios (variance analysis) (dendritic cells [2])	trend of expression with the increase of the modification ratio (dendritic cells [2])	modification ratio with the maximum (optimal) expression quantity (dendritic cells [2])	modification ratio at which the expression quantity is relatively high (dendritic cells [2])	difference of luciferase expression versus m^4Cm-modified mRNA ([1]; 100% modification, comparator m^4Cm (N^4,2′-O-dimethylcytidine))	change of expression after adding a Poly(A) structure on the 3′ terminal (dendritic cells [3])
Cc1c(O)c(N=C(N)N)nc(=O)n1C1OC(COP(=O)([O-])OP(=O)([O-])OP(=O)([O-])[O-])C(O)C1O.[K+].[K+].[K+].[K+] (stereo not shown) [invention 4]	highly significant difference	significant or highly significant differences	gradually increases	20%	20%-40%	–	–
Cc1cn(C2CC(O)C(COP(=O)([O-])OP(=O)([O-])OP(=O)([O-])[O-])O2)c(=O)nc1N=C(N)N.[K+].[K+].[K+].[K+] (stereo not shown) [invention 2]	highly significant difference	significant or highly significant differences	gradually increases	40%	20%-40%	no significant difference	–
NC(N)=Nc1ccn(C2OC(COP(=O)([O-])OP(=O)([O-])OP(=O)([O-])[O-])C(O)C2O)c(=O)n1.[K+].[K+].[K+].[K+] (stereo not shown) [invention 1]	highly significant difference	significant difference	increased	80%-100%	–	–	comparatively obvious
